The text below walks through data of US20060229255A1, “Identification of n-alkylglycine trimers for induction of apoptosis” (priority 2003, published 2006).

In one experiment the test system is pRb, p21Cip1, p27Kip1. Briefly: Western blot of G0/G1 checkpoint proteins in HT29 cells. It is filed as cell-based, human. The conditions noted are these: for pRb levels compared to controls: HT29, after 24 h in culture. How it is done: Western blotting. Floating and adherent cells were harvested and pellets were resuspended in RIPA buffer (50 mM Tris/HCl 7.4, 250 mM NaCl, 0,5% Igepal CA630, 5 mM EDTA, 1 mM PMSF, 10 μg/ml leupeptin, 50 mM NaF, 0.1 mM Na3VO4) or Deoxycholate buffer (10 mM phosphate buffer 7.4, […] NaCl, 0.5% Deoxycholate, 1% Igepal, 0.1% SDS, 1 mM PMSF). Protein concentration was determined with BCA Protein Assay Kit (Pierce) for RIPA extracts or Bradford assay (BioRad) for Deoxycholate extracts. Total protein (20-30 μg/lane) were separated by SDS-PAGE, transferred to PVDF membranes (Gellman), and probed with antibodies against Bcl-xL (Transduction); Bax (Santa Cruz); JNK (Santa Cruz); phospho-JNK (Cell Signaling); pRb (Pharmingen); pRb-phospho Ser780 (Cell Signalling); p130 (Santa Cruz); p107 (Santa Cruz); Cdk2 (Santa Cruz); p27^Kip1 (Santa Cruz); p21^Cip1 (Santa Cruz); actin (Sigma); or tubulin (ICN) and developed with ECL system (AmershamPharmacia biotech)
FIG. 8. Expression of protein involved in G0/G1 checkpoint. (A.) HT29 cells were treated for 1, 3, 6 and 24 h with N10-13-10C (40 μM) or N13-13-10C (35 µM), harvested and immunoblotted to assess total pRb levels or Cdk4 specific phosphorylation at pRb-Ser^780 (PpRb). Western blot was first probed with the pRb-Ser^780 phosphorylation specific antibody, was stripped and reprobed with the pan-pRb antibody and tubulin to normalize total protein level. (B.) T98 g cells were synchronized by serum starvation and reinitiated with 10% FCS and DMSO (C), N13-13-10C (100 μM) or Taxol (30 nM) for 15, 17, 24 or 29 h. Western blot of total protein extracts was probed with antibodies to p130, pRb, p107, Cdk2, cycA, p27, p21 and actin. Unphosphorylated, hypophosphorylated as well as hyperphosphorylated pRb are detected (arrows). (C.) HT29 cells treated for 24 and 48 h with N13-13-10C (40 μM) or DMSO as control. Immunoblots were stained with antibodies to Cdk2, cycA, p21, p27 and actin.
For orientation: Immunoblotting shows a protein as a band on a membrane.

For the next experiment, the system named is T98g glioblastoma cells. Briefly: BrdU incorporation assay (DNA synthesis). The class given is cell-based, human. As to conditions: synchronized T98 g, 17 h + 2 h BrdU; read-out: IC50 BrdU incorporation (DNA synthesis inhibition). How it is done: To confirm the G1 arrest of the cell cycle, we analyzed the DNA synthesis by an BrdU incorporation assay. Serial dilutions of the compounds N4-13-10C, N5-13-10C, N10-13-10C, N13-13-10C, etoposide or olomucine were assayed on synchronized T98 g cells as described in FIG. 7. A. Arrested cells were induced to cell cycle re-entry by re-addition of serum alone or with test compounds for 17 h, followed by 2 h in combination with 10 μM BrdU.
BrdU assay. T98g glioblastoma cells at 5000 cells/well in microtiter plates were arrested in G1-phase for 72 h by serum deprivation in MCDB 105 medium. By serum (10%) readdition, cells were treated with serial dilutions of the compounds for 17 h, and followed in combination 10 μM BrdU for […]. BrdU incorporation, i.e. DNA synthesis, was quantified with Cell Proliferation ELISA system, vs. 2 (AmershamPharmacia biotech) as described by the manufacturer.
FIG. 7. […] (A) T98 g cells were synchronized and reinitiated for 19 h with FCS alone or in combination with N10-13-10C (100 μM), N13-13-10C (100 μM), Olomucine (100 μM), etoposide (5 μM) or Taxol (30 nM). Cell cycle profile was assessed by propidium iodide DNA staining and analyzed by flow cytometry. The fraction of cells with G1, S, G2/M DNA content are shown as % of total cell population. (B. and C.) Synchronized T98 g cells were reinitiated with FCS alone or in combination with serial dilutions of N4-13-10C, N5-13-10C, N10-13-10C, N13-13-10C, Olomucine or etoposide for 19 h and labeled with BrdU during the last 2 h. BrdU incorporation was assessed by ELISA using anti-BrdU antibodies. An arbitrary value of 100% was assigned to the densiometric rate of DNA synthesis by untreated cultures and all other values are depicted relative to that reference. The values are means of three (n=3) replicates.
A general note: Uptake of a labelled nucleoside into DNA is a usual measure of proliferation.

For the molecule `COc1ccc(CCN(CC(=O)N(CCc2ccccc2)CC(N)=O)C(=O)CNCCc2ccccc2)cc1` [N10-13-10C], in the experiment on pRb, p21Cip1, p27Kip1, the “pRb levels compared to controls” value is listed as “decreased”. Besides, the IC50 in the experiment on T98g glioblastoma cells was found to be 100 µM.
For `COc1ccc(CCNCC(=O)N(CCc2ccc(OC)cc2)CC(=O)N(CCc2ccccc2)CC(N)=O)cc1` [N13-13-10C], the “pRb phosphorylation at Ser780 respect to total pRb levels” value with pRb, p21Cip1, p27Kip1 (HT29, 35 μM, 1-24 h) is “did not decrease”. In the experiment on pRb, p21Cip1, p27Kip1 (HT29, 24 h and 48 h), the p21Cip1 expression entry is given as “Over expression” and the p27Kip1 expression result was “Over expression”. Also, the “pRb levels compared to controls” value in the experiment with pRb, p21Cip1, p27Kip1 is recorded as “decreased”. For the same molecule, the IC50 in the experiment with T98g glioblastoma cells is 150 µM.
